Measurements from US20070275932A1, “Aryl, heteroaromatic and bicyclic aryl nitrone compounds, prodrugs and pharmaceutical compositions of the same to treat human disorders” (Renovis, Inc., priority 2003, published 2007).
Structures can show the parent of a compound that is named as a salt.

Assay: Free radical-scavenging/antioxidant assay (DPPH)
Format: biochemical
Conditions: 50 μM DPPH in 80% methanol, absorbance at 520 nm, 24 h time point (steady state); read-out: EC50 (concentration at which a compound reduces by 50% the peak absorbance of DPPH at 520 nm)
Procedure: Nitrone compounds of the present invention were tested for their free-radical scavenging/antioxidant activity in an in vitro assay that is accepted by those skilled in the art as a model for conditions involving the generation of free radicals. The assay is based on a reaction between a free-radical donor, 2,2-diphenyl-1-picrylhydrazyl (DPPH), and a radical scavenger/antioxidant to be tested for free-radical scavenging activity. Upon donation of the free-radical electron to the purported radical scavenger, the peak visible absorbance of DPPH (515-520 nm) decreases so that optical density readings at this part of the visual spectrum reflect the progression of the following reaction: DPPH∩+AH→DPPH-H+A∩ where AH is a hypothetical radical scavenger/antioxidant. The assay is based on a protocol originally detailed in Brand-Williams, W. et al., 1995, Use of a Free Radical Method to Evaluate Antioxidant Activity, Lebensm. Wiss. Technol., 28:25-30, with further modifications described in L. R. Fukumoto and G. Mazza, 2000, Assessing Antioxidant and Prooxidant Activities of Phenolic Compounds, J. Agric. Food Chem., 48:3597-3604.
The antioxidant assay was performed using Perkin-Elmer 96-well, clear-bottom, black-wall plates (ordered from E & K Scientific Products) and a Tecan Safire absorbance plate reader. The positive controls were Trolox (6-hydroxy-2,5,7,8-tetramethylchromane-2-carboxylic acid, Sigma-Aldrich), BHA (2(3)-tert-butylhydroquinone monomethyl ether, Sigma-Aldrich), PBN (C-(phenyl)-N-(tert-butyl)nitrone, Sigma-Aldrich) and S-PBN (C-(2-sulfophenyl)-N-(tert-butyl)nitrone, sodium salt, prepared according to E. G. Janzen and R. V. Shetty, 1979, Tetrahedron Lett., 35: 3229-32), and the negative control (i.e., vehicle) was DMSO. In brief, 2 μL of 100×DMSO stock of the desired final concentration of each control or nitrone compound to be tested in the same batch was added to a separate well. To each well was then added 198 μL of a freshly made 50 μM DPPH (Sigma-Aldrich) solution in 80% methanol using a multi-channel pipette. The absorbance was immediately read on the plate reader at 520 nm and thereafter read periodically to assess kinetics until all reactions reached completion (i.e., steady state). Since the steady-state point was 24 h, the assay results are shown from the 24 h time point. The absorbance at 520 nm (OD) was plotted versus the concentrations of the controls and nitrone compounds to assess dose-response and interpolate the EC50 values of the controls and test compounds.

| EC50 [µM] | Compound |
| --- | --- |
| 500 to 1000 | CC(C)(C)C(=O)Nc1cccc(/C=[N+](\[O-])C2CCCCC2)n1 [Example 52, N-Cyclohexyl-C-[6-(2,2-dimethylpropanamido)pyridin-2-yl]nitrone] |
| 10 to 100 | CC(C)(C)C(=O)Nc1cccc(/C=[N+](\[O-])Cc2ccccc2)n1 [Example 53, N-Benzyl-C-[6-(2,2-dimethylpropanamido)pyridin-2-yl]nitrone] |
| > 1000 | CC(C)(C)[N+]([O-])=Cc1ccccc1 [PBN, C-(phenyl)-N-(tert-butyl)nitrone, reference compound] |
| > 1000 | CC(C)(C)[N+]([O-])=Cc1ccccc1S(=O)(=O)O [S-PBN, C-(2-sulfophenyl)-N-(tert-butyl)nitrone, sodium salt, reference compound] |
| < 10 | Cc1c(C)c2c(c(C)c1O)CCC(C)(C(=O)O)O2 (centres unmarked) [Trolox, 6-hydroxy-2,5,7,8-tetramethylchromane-2-carboxylic acid, reference compound] |
